How the values were obtained:
[1] = molecular target: T1, beta-catenin-B-cell lymphoma 9 protein complex (Homo sapiens, UniProt P35222); assay: Inhibition of full length beta-catenin (1 to 781 residues) (unknown origin) expressed in Escherichia coli BL21 (DE3)-N-terminal biotinylated human BCL9 (350 to 375 residues) protein-protein interaction incubated for 1 hr by Alphascreen assay
T1 sequence (P35222 whole entry): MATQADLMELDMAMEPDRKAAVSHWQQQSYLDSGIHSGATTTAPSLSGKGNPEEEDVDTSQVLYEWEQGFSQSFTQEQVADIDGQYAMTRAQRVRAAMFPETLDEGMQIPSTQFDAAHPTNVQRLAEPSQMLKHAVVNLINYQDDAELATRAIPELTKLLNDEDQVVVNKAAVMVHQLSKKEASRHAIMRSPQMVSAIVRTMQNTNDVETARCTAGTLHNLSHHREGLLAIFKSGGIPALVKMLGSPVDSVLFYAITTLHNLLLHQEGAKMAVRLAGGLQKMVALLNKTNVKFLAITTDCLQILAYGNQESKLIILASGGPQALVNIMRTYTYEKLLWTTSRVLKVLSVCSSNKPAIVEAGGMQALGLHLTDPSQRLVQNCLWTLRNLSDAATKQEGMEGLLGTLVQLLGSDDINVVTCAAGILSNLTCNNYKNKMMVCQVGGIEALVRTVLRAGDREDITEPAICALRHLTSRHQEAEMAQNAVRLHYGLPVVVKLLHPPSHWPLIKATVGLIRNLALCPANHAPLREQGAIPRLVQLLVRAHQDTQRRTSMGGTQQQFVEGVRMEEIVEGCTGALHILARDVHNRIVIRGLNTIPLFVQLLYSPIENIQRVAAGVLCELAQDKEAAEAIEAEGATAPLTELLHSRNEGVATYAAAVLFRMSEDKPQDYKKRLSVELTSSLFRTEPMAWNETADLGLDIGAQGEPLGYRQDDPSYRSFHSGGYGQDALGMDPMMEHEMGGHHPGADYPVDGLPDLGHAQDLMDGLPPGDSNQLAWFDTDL
T1 sequence (O00512 whole entry): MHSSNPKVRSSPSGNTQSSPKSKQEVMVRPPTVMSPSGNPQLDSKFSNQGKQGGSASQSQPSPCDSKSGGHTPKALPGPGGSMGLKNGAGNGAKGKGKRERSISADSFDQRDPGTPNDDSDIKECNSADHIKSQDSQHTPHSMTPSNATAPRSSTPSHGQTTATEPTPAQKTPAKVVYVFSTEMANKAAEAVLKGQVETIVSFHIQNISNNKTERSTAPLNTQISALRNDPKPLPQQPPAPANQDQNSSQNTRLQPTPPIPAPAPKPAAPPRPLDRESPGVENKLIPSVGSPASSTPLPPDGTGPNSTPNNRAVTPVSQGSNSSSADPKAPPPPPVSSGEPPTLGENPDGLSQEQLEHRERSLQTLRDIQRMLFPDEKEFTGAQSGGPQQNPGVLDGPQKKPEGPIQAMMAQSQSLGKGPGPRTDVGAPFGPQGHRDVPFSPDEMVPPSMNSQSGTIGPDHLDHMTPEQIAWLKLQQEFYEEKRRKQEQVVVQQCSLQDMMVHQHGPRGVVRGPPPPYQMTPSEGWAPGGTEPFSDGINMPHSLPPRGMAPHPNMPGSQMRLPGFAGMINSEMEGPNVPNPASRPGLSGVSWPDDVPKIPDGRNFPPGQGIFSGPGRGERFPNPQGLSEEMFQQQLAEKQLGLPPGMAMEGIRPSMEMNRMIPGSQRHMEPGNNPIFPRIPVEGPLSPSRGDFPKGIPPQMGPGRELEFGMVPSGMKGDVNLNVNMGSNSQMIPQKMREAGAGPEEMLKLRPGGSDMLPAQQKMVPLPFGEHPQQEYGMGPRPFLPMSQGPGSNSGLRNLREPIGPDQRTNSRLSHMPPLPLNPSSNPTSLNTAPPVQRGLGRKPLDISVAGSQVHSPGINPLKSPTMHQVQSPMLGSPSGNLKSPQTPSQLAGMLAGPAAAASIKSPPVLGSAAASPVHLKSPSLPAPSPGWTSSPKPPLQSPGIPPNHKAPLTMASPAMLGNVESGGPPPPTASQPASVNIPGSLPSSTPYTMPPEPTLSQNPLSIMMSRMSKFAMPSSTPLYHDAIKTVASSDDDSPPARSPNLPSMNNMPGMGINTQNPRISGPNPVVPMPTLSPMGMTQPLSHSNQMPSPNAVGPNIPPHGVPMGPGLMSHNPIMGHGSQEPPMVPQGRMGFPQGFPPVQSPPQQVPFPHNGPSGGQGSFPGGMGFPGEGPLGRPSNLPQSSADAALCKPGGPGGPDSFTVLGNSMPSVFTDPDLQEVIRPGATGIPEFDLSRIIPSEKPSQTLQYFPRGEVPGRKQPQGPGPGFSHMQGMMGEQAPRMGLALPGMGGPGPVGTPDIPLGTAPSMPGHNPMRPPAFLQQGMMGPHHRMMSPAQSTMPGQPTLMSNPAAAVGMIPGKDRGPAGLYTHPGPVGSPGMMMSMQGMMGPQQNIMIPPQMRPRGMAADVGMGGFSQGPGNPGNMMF

[2] = molecular target: CYP2D6 (Homo sapiens, UniProt P10635); assay: Inhibition of CYP2D6 in human liver microsomes using bufuralol as substrate at 10 uM in presence of NADPH incubated for 10 mins; assay type: ADME, Microsome; conditions: probe bufuralol
[3] = molecular target: T2, CYP1A2 (Homo sapiens, UniProt P05177); assay: Inhibition of CYP1A2 in human liver microsomes using phenacetin at 10 uM in presence of NADPH incubated for 10 mins; assay type: ADME, Microsome; conditions: probe phenacetin
T2 sequence (P05177 whole entry): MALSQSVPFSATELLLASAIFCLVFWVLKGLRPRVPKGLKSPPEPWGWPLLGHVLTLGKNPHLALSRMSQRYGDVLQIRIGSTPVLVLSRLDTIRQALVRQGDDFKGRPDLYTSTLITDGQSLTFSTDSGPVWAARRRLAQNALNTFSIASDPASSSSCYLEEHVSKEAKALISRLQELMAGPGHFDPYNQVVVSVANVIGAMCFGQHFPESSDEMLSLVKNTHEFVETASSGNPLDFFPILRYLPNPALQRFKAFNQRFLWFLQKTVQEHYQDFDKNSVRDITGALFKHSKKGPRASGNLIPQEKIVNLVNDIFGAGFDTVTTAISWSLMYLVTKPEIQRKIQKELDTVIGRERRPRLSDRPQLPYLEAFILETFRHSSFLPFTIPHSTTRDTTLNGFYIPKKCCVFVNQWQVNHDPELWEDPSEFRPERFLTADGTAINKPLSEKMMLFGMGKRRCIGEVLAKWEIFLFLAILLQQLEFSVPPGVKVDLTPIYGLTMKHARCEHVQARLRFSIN

[4] = molecular target: CYP3A4 (Homo sapiens, UniProt P08684); assay: Inhibition of CYP3A4 in human liver microsomes using Midazolam as substrate at 10 uM in presence of NADPH incubated for 10 mins; assay type: ADME, Microsome; conditions: probe midazolam
[5] = molecular target: CYP2C9 (Homo sapiens, UniProt P11712); assay: Inhibition of CYP2C9 in human liver microsomes using tolbutamide as substrate at 10 uM in presence of NADPH incubated for 10 mins; assay type: ADME, Microsome; conditions: probe tolbutamide
[6] = system: HCT-116; assay: Antiproliferative activity against human HCT-116 cells assessed as inhibition of cell growth measured by MTS method; assay type: functional, cell-based
[7] = system: MCF-10A; assay: Antiproliferative activity against human MCF-10A cells assessed as inhibition of cell growth measured by MTS method; assay type: functional, cell-based
[8] = system: MDA-MB-231; assay: Antiproliferative activity against human MDA-MB-231 cells assessed as inhibition of cell growth measured by MTS method; assay type: functional, cell-based
[9] = Inhibition of Wnt/beta-catenin transactivation signalling in human SW480 cells by TOPFlash reporter gene assay; assay type: cell-based
[10] = system: SW480; assay: Antiproliferative activity against human SW480 cells assessed as inhibition of cell growth measured by MTS method; assay type: functional, cell-based
[11] = system: MDA-MB-468; assay: Antiproliferative activity against human MDA-MB-468 cells assessed as inhibition of cell growth measured by MTS method; assay type: functional, cell-based

CYP2C9, sequence (P11712 whole entry): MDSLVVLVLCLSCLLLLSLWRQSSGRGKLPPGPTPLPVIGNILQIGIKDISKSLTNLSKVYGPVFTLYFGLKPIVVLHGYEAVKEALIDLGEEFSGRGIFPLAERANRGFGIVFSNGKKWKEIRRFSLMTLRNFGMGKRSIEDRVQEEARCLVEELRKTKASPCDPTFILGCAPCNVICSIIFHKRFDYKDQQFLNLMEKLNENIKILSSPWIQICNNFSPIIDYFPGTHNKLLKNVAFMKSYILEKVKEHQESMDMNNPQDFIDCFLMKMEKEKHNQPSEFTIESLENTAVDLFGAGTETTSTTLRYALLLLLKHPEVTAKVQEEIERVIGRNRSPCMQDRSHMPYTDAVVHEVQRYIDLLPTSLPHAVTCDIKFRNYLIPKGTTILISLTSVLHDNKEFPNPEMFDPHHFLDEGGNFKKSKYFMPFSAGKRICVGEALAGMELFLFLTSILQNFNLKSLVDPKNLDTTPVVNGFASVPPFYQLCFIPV
CYP3A4, sequence (P08684 whole entry): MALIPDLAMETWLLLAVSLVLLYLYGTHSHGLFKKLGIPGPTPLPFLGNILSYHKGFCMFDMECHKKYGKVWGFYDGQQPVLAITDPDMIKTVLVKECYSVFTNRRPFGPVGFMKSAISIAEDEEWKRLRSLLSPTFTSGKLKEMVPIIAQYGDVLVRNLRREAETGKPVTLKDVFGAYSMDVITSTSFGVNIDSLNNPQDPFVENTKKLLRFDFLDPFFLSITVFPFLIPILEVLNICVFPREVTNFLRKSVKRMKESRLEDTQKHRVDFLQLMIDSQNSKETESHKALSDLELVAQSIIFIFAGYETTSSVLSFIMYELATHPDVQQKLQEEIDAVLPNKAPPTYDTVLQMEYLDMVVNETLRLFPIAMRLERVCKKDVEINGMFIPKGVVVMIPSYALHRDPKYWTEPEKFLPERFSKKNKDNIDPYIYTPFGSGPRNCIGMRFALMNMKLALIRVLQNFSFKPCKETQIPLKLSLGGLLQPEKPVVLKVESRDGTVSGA
CYP2D6, sequence (P10635 whole entry): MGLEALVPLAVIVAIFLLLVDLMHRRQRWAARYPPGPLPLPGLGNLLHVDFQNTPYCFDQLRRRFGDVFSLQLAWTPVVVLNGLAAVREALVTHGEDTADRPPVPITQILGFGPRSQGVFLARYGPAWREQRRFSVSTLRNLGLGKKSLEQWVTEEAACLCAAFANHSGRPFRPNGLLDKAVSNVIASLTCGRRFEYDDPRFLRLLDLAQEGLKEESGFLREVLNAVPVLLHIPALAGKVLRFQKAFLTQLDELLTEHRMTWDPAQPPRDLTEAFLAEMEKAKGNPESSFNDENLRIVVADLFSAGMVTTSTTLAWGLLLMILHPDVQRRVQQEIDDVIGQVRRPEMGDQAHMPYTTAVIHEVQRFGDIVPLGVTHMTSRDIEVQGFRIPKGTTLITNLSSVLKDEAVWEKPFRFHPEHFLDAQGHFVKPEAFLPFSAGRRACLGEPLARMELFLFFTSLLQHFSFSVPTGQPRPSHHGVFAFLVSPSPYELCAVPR

Row | Structure (SMILES) | IC50 [1] [µM] | Ki [1] [µM] | further results
1 | O=C(C(Oc1cccc(N2CCC[C@@H](C(=O)N(Cc3ccc(-c4cn[nH]c4)cc3)C3CC3)C2)c1)c1ccccc1)N1CCNCC1 (some centres not stated) | 23 | 21 | –
2 | CC(C)(Oc1cccc(N2CCC[C@@H](C(=O)N(Cc3ccc(-c4cn[nH]c4)cc3)C3CC3)C2)c1)C(=O)N1CC2(CCNCC2)C1 | 38 | 31 | –
3 | O=C([C@@H]1CCCN(c2cccc(OC3(C(=O)N4CCNCC4)CCCC3)c2)C1)N(Cc1ccc(-c2cn[nH]c2)cc1)C1CC1 | 43 | 39 | –
4 | CC(C)(Oc1cccc(N2CCC[C@@H](C(=O)N(Cc3ccc(-c4cn[nH]c4)cc3)C3CC3)C2)c1)C(=O)N1CC2(CNC2)C1 | 44 | 37 | –
5 | CC(C)(Oc1cccc(N2CCC[C@@H](C(=O)N(Cc3ccc(-c4cn[nH]c4)cc3)C3CC3)C2)c1)C(=O)N1CCC2(CCNC2)C1 (some centres not stated) | 12 | 9.8 | –
6 | CC(C)(Oc1cccc(N2CCC[C@@H](C(=O)N(Cc3ccc(-c4cn[nH]c4)cc3)C3CC3)C2)c1)C(=O)N1CCNCC1 | – | – | inhibition at 10 min, 10 µM [2]: 73%; inhibition at 10 min, 10 µM [3]: 17%; inhibition at 10 min, 10 µM [4]: 96%; inhibition at 10 min, 10 µM [5]: 83%
7 | CC(C)(Oc1cccc(N2CCC[C@@H](C(=O)N(Cc3ccc(-c4cn[nH]c4)cc3)C3CC3)C2)c1)C(=O)N1C[C@H]2CNC[C@H]2C1 | 8.3 | 6.8 | –
8 | O=C([C@@H]1CCCN(c2cccc(OC3(C(=O)N4CCNCC4)CC3)c2)C1)N(Cc1ccc(-c2cn[nH]c2)cc1)C1CC1 | 29 | 24 | –
9 | CC(C)(Oc1cccc(N2CCC[C@@H](C(=O)NCc3ccc(-c4cn[nH]c4)cc3)C2)c1)C(=O)N1CCNCC1 | 81 | 73 | –
10 | CC(C)N(Cc1ccc(-c2cn[nH]c2)cc1)C(=O)[C@@H]1CCCN(c2cccc(OC(C)(C)C(=O)N3CCNCC3)c2)C1 | 8.9 | 8 | –

Further lines, with some results ahead:

Row | IC50 [1] [µM] | Ki [1] [µM] | Structure (SMILES) | further results
11 | 1.4 | 1.2 | CC(C)(Oc1cccc(N2CCC[C@@H](C(=O)N(Cc3ccc(-c4c[nH]c5ccccc45)cc3)C3CC3)C2)c1)C(=O)N1CCNCC1 | –
12 | 2.5 | 2 | CC(C)(Oc1cccc(N2CCC[C@@H](C(=O)N(Cc3ccc(-c4cccc5[nH]ncc45)cc3)C3CC3)C2)c1)C(=O)N1CCNCC1 | –
13 | 20 | 16 | CC(C)(Oc1cccc(N2CCC[C@@H](C(=O)N(Cc3ccc(-c4cn[nH]c4)cc3)C3CC3)C2)c1)C(=O)N1CCC2(CNC2)C1 | –
14 | 7.6 | 6.8 | CC(C)(Oc1cccc(N2CCC[C@@H](C(=O)N(Cc3ccc(-c4cn[nH]c4)cc3)C3CCCC3)C2)c1)C(=O)N1CCNCC1 | –
15 | 2.2 | 1.8 | CC(C)(Oc1cccc(N2CCC[C@@H](C(=O)N(Cc3ccc(-c4ccnc5[nH]ccc45)cc3)C3CC3)C2)c1)C(=O)N1CCNCC1 | IC50 [6]: 7.7 µM; IC50 [7]: 29 µM; IC50 [8]: 6.5 µM; IC50 [9]: 15 µM; IC50 [10]: 10 µM; IC50 [11]: 5.5 µM
16 | 12 | 11 | CC(C)(Oc1cccc(N2CCC[C@@H](C(=O)N(Cc3ccc(-c4cn[nH]c4)cc3)C3CCC3)C2)c1)C(=O)N1CCNCC1 | –
17 | 28 | 25 | CN(Cc1ccc(-c2cn[nH]c2)cc1)C(=O)[C@@H]1CCCN(c2cccc(OC(C)(C)C(=O)N3CCNCC3)c2)C1 | –
18 | 0.96 | 0.85 | CC(C)(Oc1cccc(N2CCC[C@@H](C(=O)N(Cc3ccc(-c4c[nH]c5ncccc45)cc3)C3CC3)C2)c1)C(=O)N1CCNCC1 | IC50 [6]: 8.1 µM; IC50 [7]: 24 µM; IC50 [8]: 4.6 µM; IC50 [9]: 11 µM; IC50 [10]: 9.7 µM; IC50 [11]: 5 µM
19 | 18 | 15 | CC(C)(Oc1cccc(N2CCC[C@@H](C(=O)N(Cc3ccc(-c4cn[nH]c4)cc3)CC3CC3)C2)c1)C(=O)N1CCNCC1 | –

Source: ChEMBL document CHEMBL5154919, “New ZW4864 Derivatives as Small-Molecule Inhibitors for the β-Catenin/BCL9 Protein-Protein Interaction” (ACS Med Chem Lett, 2022)
